Test [1] addresses T1, Axl (Homo sapiens, UniProt P30530).
T1 sequence (P30530 26-894): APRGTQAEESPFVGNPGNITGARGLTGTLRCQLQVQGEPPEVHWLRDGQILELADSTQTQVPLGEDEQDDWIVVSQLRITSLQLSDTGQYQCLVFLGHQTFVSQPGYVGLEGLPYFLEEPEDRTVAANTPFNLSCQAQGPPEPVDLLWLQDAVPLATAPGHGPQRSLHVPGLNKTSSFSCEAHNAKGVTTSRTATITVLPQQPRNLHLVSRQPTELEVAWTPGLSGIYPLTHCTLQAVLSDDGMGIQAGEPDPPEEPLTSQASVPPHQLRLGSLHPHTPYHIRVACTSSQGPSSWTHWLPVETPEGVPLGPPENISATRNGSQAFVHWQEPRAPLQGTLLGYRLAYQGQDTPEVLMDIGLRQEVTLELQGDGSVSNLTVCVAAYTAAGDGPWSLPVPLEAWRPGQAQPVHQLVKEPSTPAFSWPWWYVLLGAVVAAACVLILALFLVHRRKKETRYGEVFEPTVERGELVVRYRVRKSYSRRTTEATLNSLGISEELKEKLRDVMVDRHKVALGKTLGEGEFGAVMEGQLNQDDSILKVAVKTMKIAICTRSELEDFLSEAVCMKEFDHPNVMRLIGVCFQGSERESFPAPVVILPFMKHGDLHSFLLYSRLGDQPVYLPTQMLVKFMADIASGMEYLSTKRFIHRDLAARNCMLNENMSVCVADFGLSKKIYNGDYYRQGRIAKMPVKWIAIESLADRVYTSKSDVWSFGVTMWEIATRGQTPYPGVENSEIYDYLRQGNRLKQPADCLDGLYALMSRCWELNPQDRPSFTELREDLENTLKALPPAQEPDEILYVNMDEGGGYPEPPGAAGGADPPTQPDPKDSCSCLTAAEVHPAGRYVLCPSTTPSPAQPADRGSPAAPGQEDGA
Put plainly: Biochemical potency, HTRF KinEASE-TK kinase assay. On the set-up: purchased Invitrogen. The note with it: 5 nM AXL, 700 μM ATP. A digest of the protocol:
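Enzyme (AXL 5 nM; TYRO3 or MER 1 nM final) was preincubated with compound for 1 h at RT, then reacted for 2 h at RT with 800 nM biotinylated TK substrate and 700 µM ATP in HEPES pH 7.4, MgCl2, DTT, BSA, 1% DMSO. Percent activity came from the HTRF 665/620 ratio.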
Background: Time-resolved FRET reads energy transfer from a long-lived donor to a nearby acceptor.

Test [2] addresses T1, Axl. Put plainly: Axl NanoBRET intracellular kinase assay (intracellular binding, K-5 tracer displacement). Also on record: host or cells: HEK-293. The note with it: HEK-293 cells transfected with Axl-NanoLuc, 0.35 μM K-5 NanoBRET tracer; read-out: Cell Binding AXL. A digest of the protocol:
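HEK-293 cells transiently transfected with Axl-NanoLuc, 8K cells/well at 0.5% DMSO, pre-incubated 1 h with compound at 37 °C, then 2 h with 0.35 μM K-5 tracer. BRET ratio 610/450 nm; IC50 by 4-parameter fit of tracer displacement.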

As to `CS(=O)(=O)c1ccccc1-c1ccc(-c2c[nH]c3ncc(-c4ccc5c(c4)CC[C@@H](N4C6COCC4C6)CC5)cc23)cc1` [Example 93, 6-[(7S)-2-(3-{2′-Methanesulfonyl-[1,1′-biphenyl]-4-yl}-1H-pyrrolo[2,3-b]pyridin-5-yl)-6,7,8,9-tetrahydro-5H-benzo[7]annulen-7-yl]-3-oxa-6-azabicyclo[3.1.1]heptane], the IC50 in test [1] and in test [2] was below 0.1 µM each time.
On to `c1cncc(-c2ccc(-c3n[nH]c4ncc(-c5ccc6c(c5)CC[C@@H](N5C7COCC5C7)CC6)cc34)cc2)c1` [Example 157, 6-[(7S)-2-{3-[4-(Pyridin-3-yl)phenyl]-2H-pyrazolo[3,4-b]pyridin-5-yl}-6,7,8,9-tetrahydro-5H-benzo[7]annulen-7-yl]-3-oxa-6-azabicyclo[3.1.1]heptane], for which the IC50 was below 0.1 µM in test [1] and 0.1 to 1 µM in test [2].
Turning to `COc1cc(-c2n[nH]c3ncc(-c4ccc5c(c4)CC[C@@H](N4C6COCC4C6)CC5)cc23)ccc1-c1ccccn1` [Example 160, 6-[(7S)-2-{3-[3-Methoxy-4-(pyridin-2-yl)phenyl]-2H-pyrazolo[3,4-b]pyridin-5-yl}-6,7,8,9-tetrahydro-5H-benzo[7]annulen-7-yl]-3-oxa-6-azabicyclo[3.1.1]heptane], the IC50 in test [1] was below 0.1 µM; in test [2], 0.1 to 1 µM.
For the compound `COc1cc(-c2c[nH]c3ncc(-c4ccc5c(c4)CC[C@@H](N4C6COCC4C6)CC5)cc23)ccc1-c1ccccn1` [Example 161, 6-[(7S)-2-{3-[3-Methoxy-4-(pyridin-2-yl)phenyl]-1H-pyrrolo[2,3-b]pyridin-5-yl}-6,7,8,9-tetrahydro-5H-benzo[7]annulen-7-yl]-3-oxa-6-azabicyclo[3.1.1]heptane], the IC50 is below 0.1 µM in test [1] and 0.1 to 1 µM in test [2].
On to `COc1cccc(-c2ccc(-c3n[nH]c4ncc(-c5ccc6c(c5)CC[C@@H](N5C7COCC5C7)CC6)cc34)cc2)n1` [Example 162, 6-[(7S)-2-{3-[4-(6-Methoxypyridin-2-yl)phenyl]-2H-pyrazolo[3,4-b]pyridin-5-yl}-6,7,8,9-tetrahydro-5H-benzo[7]annulen-7-yl]-3-oxa-6-azabicyclo[3.1.1]heptane], for which the results for the IC50 in test [1] and in test [2] were below 0.1 µM and above 1 µM, respectively.

The values are drawn from patent US12195482B1 (Arcus Biosciences, Inc., priority 2022, dated 2025).
